From patent US9828350B2, “5,6-dihydro-2H-[1,4]oxazin-3-yl-amine derivatives useful as inhibitors of beta-secretase (BACE)” (Janssen Pharmaceutica NV, priority 2010, dated 2017)
Counter-ions that a name gives are not always drawn.

Tests used:
[1] = biological target: recombinant BACE1 protein (Homo sapiens, UniProt P56817); assay: Biochemical FRET based assay; details: recombinant BACE1 1 μg/ml, 120 minutes at room temperature, pH 5.0; for IC50: read-out: Biochemical FRET based assay pIC50 (converted)
Sequence of recombinant BACE1 protein (P56817 46-501): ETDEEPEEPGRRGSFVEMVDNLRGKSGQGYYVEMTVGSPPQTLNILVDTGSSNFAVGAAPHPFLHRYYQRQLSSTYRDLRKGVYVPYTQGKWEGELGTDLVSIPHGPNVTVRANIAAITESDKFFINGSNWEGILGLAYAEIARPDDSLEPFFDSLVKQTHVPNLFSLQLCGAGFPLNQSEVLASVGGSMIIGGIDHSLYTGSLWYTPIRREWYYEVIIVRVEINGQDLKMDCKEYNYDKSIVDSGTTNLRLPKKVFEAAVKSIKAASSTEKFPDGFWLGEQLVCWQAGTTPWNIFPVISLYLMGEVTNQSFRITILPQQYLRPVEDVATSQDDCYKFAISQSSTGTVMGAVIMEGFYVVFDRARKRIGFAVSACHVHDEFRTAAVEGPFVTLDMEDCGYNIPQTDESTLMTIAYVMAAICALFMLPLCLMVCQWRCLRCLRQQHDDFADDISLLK
Outline: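 Recombinant BACE1 (1 μg/ml final) was incubated 120 minutes at room temperature with […] Mca/Dnp-labelled 13-mer APP Swedish-mutant peptide in 40 mM citrate pH 5.0, 0.04% PEG, 4% DMSO, with or without compound. Cleavage was measured as fluorescence (ex 320/em 405 nm), given as RFU difference between T120 and T0.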

Abeta 1-42 = assay: Cellular αLisa assay in SKNBE2 cells, Abeta 1-42; assay type: cell-based, human; details: incubated for 18 hours; for IC50: Homo sapiens, SKNBE2, 18 h, read-out: Cellular αLisa assay in SKNBE2 cells Abeta 42 pIC50 (converted)
Outline: (§1)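 Human neuroblastoma SKNBE2 cells expressing wild-type hAPP695 were incubated with compound for 18 hours. Secreted Abeta total and Abeta 1-42 in medium were quantified by sandwich αLisa: biotinylated AbN/25 on streptavidin donor beads with Ab4G8 (total) or cAb42/26 (1-42) acceptor beads. Light emission read after 1 hour (ex 650 nm, em 615 nm).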

Abeta total = assay: Cellular αLisa assay in SKNBE2 cells, Abeta total; assay type: cell-based, human; details: incubated for 18 hours; for IC50: Homo sapiens, SKNBE2, 18 h, read-out: Cellular αLisa assay in SKNBE2 cells Abetatotal pIC50 (converted)
Outline: as §1

IC50 [1] | melting point | IC50 (Abeta 1-42) | IC50 (Abeta total) | Biochemical FRET based assay pIC50 [1] | Cellular αLisa assay in SKNBE2 cells Abeta 42 pIC50 (Abeta 1-42) | Cellular αLisa assay in SKNBE2 cells Abetatotal pIC50 (Abeta total) | SMILES
2630 nM | 213.1 °C | 631 nM | 646 nM |  |  |  | CC1(c2cc(-c3cncnc3)c(F)cc2F)COC2(CC2)C(N)=N1 (centres unmarked) [Compound 72]
44.7 nM | 181.79 °C | 14.1 nM | 14.5 nM |  |  |  | N#Cc1ccc(C(=O)Nc2ccc(F)c([C@@]3(C4CC4)N=C(N)CO[C@H]3C(F)(F)F)c2)nc1 [Compound 229, (2R,3R)—N-{3-[5-amino-3-cyclopropyl-2-(trifluoromethyl)-3,6-dihydro-2H-1,4-oxazin-3-yl]-4-fluorophenyl}-5-cyanopyridine-2-carboxamide]
22900 nM | 195.3 °C | 3890 nM | 4470 nM |  |  |  | CC1(c2cc(-c3cncnc3)c(F)cc2F)N=C(N)COC1F (centres unmarked) [Compound 84]
1550 nM | 196.9 °C | 200 nM | 224 nM |  |  |  | COc1cncc(-c2ccc(F)c(C3(C)N=C(N)COC3C(F)(F)F)c2)c1 (centres unmarked) [Compound 105]
> 30200 nM | 187.4 °C | 8710 nM | 8910 nM |  |  |  | C[C@]1(c2cc(-c3cncnc3)c(F)cc2F)COC2(CC2)C(N)=N1 [Compound 149]
 | 217.2 °C |  |  |  |  |  | CC1(c2cccc(-c3ccccc3)c2)COCC(N)=N1 (racemic) (as salt: TFA) [Compound 1, rac-5-biphenyl-3-yl-5-methyl-5,6-dihydro-2H-1,4-oxazin-3-amine trifluoroacetate salt]
407 nM | 198.43 °C | 363 nM | 363 nM |  |  |  | COc1cnc(C(=O)Nc2ccc(F)c([C@@]3(C)N=C(N)CO[C@]3(F)C(F)(F)F)c2)cn1 [Compound 184]
> 30200 nM | 186.2 °C | > 10000 nM | > 10000 nM |  |  |  | C[C@]1(c2cc(-c3cncnc3)c(F)cc2F)N=C(N)CO[C@@H]1F (single isomer, unassigned) [Compound 148, (R*,R*)-5-(2,4-difluoro-5-pyrimidin-5-ylphenyl)-6-fluoro-5-methyl-5,6-dihydro-2H-1,4-oxazin-3-amine]
 | 139.23 °C |  |  | 5.81 | 6.46 | 6.47 | COc1cncc(-c2cccc(C3(C)N=C(N)COC3F)c2)c1 (centres unmarked) [Compound 87]
81.3 nM | 196.44 °C |  |  |  | 7.14 | 7.17 | CCC1(c2cc(NC(=O)c3cnc(OC)cn3)ccc2F)N=C(N)COC1(F)C(F)(F)F (centres unmarked) [Compound 301]
447 nM | 141.4 °C | 398 nM | 347 nM |  |  |  | C[C@]1(c2cc(-c3cncc(Cl)c3)c(F)cc2F)N=C(N)CO[C@H]1C(F)(F)F [Compound 255]
1820 nM | 204.89 °C |  |  |  | 5.73 | 5.76 | CCC1(c2cc(-c3cncnc3)ccc2F)N=C(N)COC1(F)C(F)(F)F (centres unmarked) [Compound 303]
26.3 nM | 200.16 °C | 13.5 nM | 13.5 nM |  |  |  | C[C@]1(c2cc(NC(=O)c3ncc(Cl)cc3Cl)ccc2F)N=C(N)CO[C@@]1(F)C(F)(F)F [Compound 181]
6460 nM | 160.8 °C | 871 nM | 851 nM |  |  |  | C[C@@]1(c2cccc(NC(=O)c3ccc(Cl)cn3)c2)N=C(N)CO[C@H]1F (single isomer, unassigned) [Compound 85, (S*,S*)—N-[3-(5-amino-2-fluoro-3-methyl-3,6-dihydro-2H-1,4-oxazin-3-yl)phenyl]-5-chloropyridine-2-carboxamide]
1910 nM | 197 °C | 724 nM | 617 nM |  |  |  | CC1(c2cccc(-c3cc(Cl)cc(Cl)c3)c2)COCC(N)=N1 (racemic) [Compound 2, rac-5-(3′,5′-dichlorobiphenyl-3-yl)-5-methyl-5,6-dihydro-2H-1,4-oxazin-3-amine]
437 nM | 70.1 °C | 4070 nM | 3720 nM |  |  |  | C[C@]1(c2cc(-c3cncc(Cl)c3)c(F)cc2F)N=C(N)CO[C@@]1(F)C(F)(F)F [Compound 213]
26.9 nM | 185.6 °C | 11 nM | 10 nM |  |  |  | COc1ccc(C(=O)Nc2ccc(F)c([C@@]3(C)N=C(N)CO[C@@H]3F)c2)nc1 [Compound 208]
513 nM | 180.17 °C |  |  |  | 6.74 | 6.81 | CC1(c2cccc(NC(=O)c3ncc(Cl)cc3F)c2)N=C(N)COC1(F)C(F)(F)F (single isomer, unassigned) [Compound 172]
3890 nM | 202.5 °C | 3160 nM | 3160 nM |  |  |  | COc1cncc(-c2cccc(C3(C(F)(F)F)COCC(N)=N3)c2)c1 (racemic) [Compound 152, rac-5-[3-(5-methoxypyridin-3-yl)phenyl]-5-(trifluoromethyl)-5,6-dihydro-2H-1,4-oxazin-3-amine]
1910 nM | 116.4 °C |  |  |  | 6.47 | 6.48 | CC1(c2cc(NC(=O)c3ncc(Cl)cc3F)ccc2F)N=C(N)COC1F (single isomer, unassigned) [Compound 130]
55 nM | 132.03 °C | 83.2 nM | 57.5 nM |  |  |  | Cc1cc(Br)cnc1C(=O)Nc1ccc(F)c([C@@]2(C3CC3)N=C(N)CO[C@@H]2F)c1 [Compound 314]
41.7 nM | 123.8 °C | 25.1 nM | 25.1 nM |  |  |  | COc1ccc(C(=O)Nc2ccc(F)c([C@@]3(C)N=C(N)CO[C@@]3(F)C(F)(F)F)c2)nc1 [Compound 305]
 | 207.3 °C |  |  |  | 5.68 | 5.71 | CC1(c2cccc(NC(=O)c3ccc(Cl)cn3)c2)N=C(N)COC1(F)C(F)(F)F (single isomer, unassigned) [Compound 112]
 | 193.3 °C |  |  |  |  |  | C[C@@]1(c2cccc(-c3cncnc3)c2)COC2(CC2)C(N)=N1 (as salt: fumarate) [Compound 74]
> 30200 nM |  |  |  |  | 5.66 | 5.65 | COc1cncc(-c2cccc(C3(C)N=C(N)COC3F)c2)c1 (single isomer, unassigned) [Compound 88]
 |  |  |  | 6.18 | 7.07 | 7.04 | CC1(c2cc(NC(=O)c3ccncn3)ccc2F)COCC(N)=N1 (centres unmarked) [Compound 28]
 |  |  |  | 6.04 | 7.31 | 7.32 | Cc1cnc(C(=O)Nc2ccc(F)c([C@]3(C)COCC(N)=N3)c2)cn1 [Compound 40]
525 nM |  |  |  |  | 7.16 | 7.16 | CC1(c2cc(-c3cncc(C#N)c3)ccc2F)N=C(N)COC1C(F)(F)F (single isomer, unassigned) [Compound 265]
